Counter-ions that a name gives are not always drawn.
How the values were obtained:
[1] = storage stability at normal temperature and air humidity; assay type: physicochemical; conditions: 100 days stored at normal temperature and air humidity
Protocol: XRD pattern of the novel crystalline form M was shown in FIG. 1, comprising characteristic peaks (expressed in degrees 2θ) at 5.62, 11.62, 12.16, 13.80, 17.18, 18.80, 21.72, 23.44, 25.16 and 26.88. DSC thermogram of the novel crystalline form M was shown in FIG. 2, comprising an endothermic peak at 192.61° C. […] The product of the novel crystalline form M had higher bulk density and fluidity with an appearance of stubby rod, as shown in FIG. 3.

[2] = tested on: Wistar rats; assay: long-term toxicity test in rats (13 weeks)
Protocol: (§1) 15 Beagle dogs were used for acute toxicity test, and given different doses of Pantoprazole Sodium of 44, 67, 100, 150 and 225 mg/kg. 3 animals belongs to each group and toxic reactions were observed after administration in each group. […] The Pantoprazole Sodium was divided into 5, 3 and […] groups by high, medium and low doses. The test period is 13 weeks. 80 healthy Wistar rats with males and females half and half were randomly divided into four groups, and were gavaged once a day regularly, drug withdrawal 2 weeks after administration 13 weeks, and then taken conventional toxicology observations and index detection.

[3] = in vivo; conditions: both, ICR, mouse, iv
Description: (§2) The median lethal dose method was taken for the acute toxicity test in mice. 50 ICR mice met experimental requirements were selected and randomly divided into 5 dose groups by weight, 10 animals each group with males and females half and half. […] Toxic reactions were observed during administration and after administration in mice.

[4] = tested on: ICR mice; conditions: intravenous injection
Description: as §2

[5] = tested on: Beagle dogs; assay: acute toxicity test in Beagle dogs; assay type: in vivo; conditions: at the dose of 150 mg/kg
Protocol: as §1

[6] = acute toxicity test in Beagle dogs; assay type: in vivo; conditions: dog, in vivo, doses 44-225 mg/kg
Protocol: as §1

[7] = thermal stability test at 60° C. and 90% relative humidity; assay type: physicochemical; conditions: for change of polymorph, purity and appearance: 15 days at 60° C. and 90% relative humidity, sodium salt
Protocol: The feature of the crystalline form M of Pantoprazole Sodium compound provided in the present invention is free of any crystalline solvents, and the melting point of the novel crystalline form is 192±2° C., which is higher than those of traditional crystalline forms. […] The product of the novel crystalline form has higher bulk density and fluidity with an appearance of stubby rod. The crystalline product especially has greater advantages in the preparation of formulations of Pantoprazole Sodium tablets, powder and subsequent other forms of such processes, due to the increased stability, fluidity and bulk density. At the same time, the product has better qualities in the process of filtering, washing, drying, packaging and storage due to the improvement of the properties described above.
1 g of dried solid Pantoprazole Sodium was added to 20 mL of n-butanol and n-pentanol (1:1, in volume) to form a suspension, and then 0.005 g BHA was added to the suspension under stirring, the suspension was heated to […] to make all the solid dissolved; and 60 mL of cyclohexane was dropwise added to the solution at a speed of 0.12 ml/min under constant temperature to obtain a suspension; meanwhile, a ultrasonic wave with a frequency of 20 KHz, a power of 50 W was applied, followed by cooling the solution down to 0° C. at a rate of 0.2° C./min, continuing to stir for 1 h, vacuum filtrating the crystal slurry, and the residue was dried at 50° C. and under normal pressure for 48 h to constant weight, to obtain crystalline form M of Pantoprazole Sodium product. XRD pattern of the novel crystalline form M was shown in FIG. 1, comprising characteristic peaks (expressed in degrees 2θ) at 5.62, 11.62, 12.16, 13.80, 17.18, 18.80, 21.72, 23.44, 25.16 and 26.88. DSC thermogram of the novel crystalline form M was shown in FIG. 2, comprising an endothermic peak at 192.61° C. […] The product of the novel crystalline form M had higher bulk density and fluidity with an appearance of stubby rod, as shown in FIG. 3.

[8] = cited from earlier work
[9] = toxic reaction tests (overall comparison); assay type: in vivo; conditions: versus existing Pantoprazole Sodium

## COc1ccnc(C[S+]([O-])c2nc3cc(OC(F)F)ccc3[n]2[Na+])c1OC (stereo not drawn) [Example 1, 5-difluoromethoxy-2-[(3,4-dimethoxy-2-pyridinyl)methyl]sulfinyl-1H-benzimidazole sodium salt]
[1]
  change of polymorph, purity and color: did not make any change
[2]; Wistar rats, gavage once a day, 13 weeks, 3 and 1 g/kg
  toxicology observations and indexes, medium- and low-dose groups: no significant difference occurred
[2]; both, Wistar, rat, in vivo, 13 weeks
  dose of nontoxic response: 3 g/kg
[2]; rat, in vivo
  histopathological examination: liver cell degeneration occurred in one rat
  indexes after drug withdrawal: No obvious abnormality occurred
[3]
  LD50: 392 mg/kg
[4]
  toxic reactions during administration: struggling, shortness of breath, limbs limp, difficulty breathing, and severe to death
[5]
  toxic reactions: tremors, increased salivation, limp, vomiting, and death after 20 min
[6]
  LD50: 70 mg/kg
[7]
  change of polymorph, purity and appearance: did not make any change

## COc1ccnc(C[S+]([O-])c2nc3cc(OC(F)F)ccc3[n]2[Na+])c1OC (stereo not drawn) [Example 4, 5-difluoromethoxy-2-[(3,4-dimethoxy-2-pyridinyl)methyl]sulfinyl-1H-benzimidazole sodium salt]
[1]
  change of polymorph, purity and color: did not make any change
[7]
  change of polymorph, purity and appearance: did not make any change

## COc1ccnc(C[S+]([O-])c2nc3cc(OC(F)F)ccc3[n]2[Na+])c1OC (stereo not drawn) [Example 3, 5-difluoromethoxy-2-[(3,4-dimethoxy-2-pyridinyl)methyl]sulfinyl-1H-benzimidazole sodium salt]
[1]
  change of polymorph, purity and color: did not make any change
[7]
  change of polymorph, purity and appearance: did not make any change

## COc1ccnc(C[S+]([O-])c2nc3cc(OC(F)F)ccc3[n]2[Na+])c1OC (stereo not drawn) [Pantoprazole Sodium, 5-difluoromethoxy-2-[(3,4-dimethoxy-2-pyridinyl)methyl]sulfinyl-1H-benzimidazole sodium salt]
[8]; trichloromethane or ethyl ether
  solubility in trichloromethane or ethyl ether: almost insoluble
[8]; water or methanol
  solubility in water or methanol: soluble

## COc1ccnc(C[S+]([O-])c2nc3cc(OC(F)F)ccc3[n]2[Na+])c1OC (stereo not drawn) [crystalline form M, 5-difluoromethoxy-2-[(3,4-dimethoxy-2-pyridinyl)methyl]sulfinyl-1H-benzimidazole sodium salt]
[9]
  toxicity compared with existing Pantoprazole Sodium: decreased toxicity
[7]
  change of polymorph, purity and appearance: do not changed
[7]; conclusion from 15 days at 60° C. and 90% relative humidity
  thermal stability: better thermal stability

## COc1ccnc(C[S+]([O-])c2nc3cc(OC(F)F)ccc3[n]2[Na+])c1OC (stereo not drawn) [Example 2, 5-difluoromethoxy-2-[(3,4-dimethoxy-2-pyridinyl)methyl]sulfinyl-1H-benzimidazole sodium salt]
[1]
  change of polymorph, purity and color: did not make any change
[7]
  change of polymorph, purity and appearance: did not make any change
